Measured values: patent US20190374526A1, “Substituted Heterocyclic Compounds as Inhibitors of PRDM9” (Merck Sharp & Dohme Corp., priority 2018, published 2019)
Where a name gives a salt, the structure may show the parent alone.

Target: T1, hPRDM9 (amino acids 195-385) (Homo sapiens, UniProt Q9NQV7)
T1 construct: 1.25 nM hPRDM9 (amino acids 195-385)
T1 sequence (Q9NQV7 195-385): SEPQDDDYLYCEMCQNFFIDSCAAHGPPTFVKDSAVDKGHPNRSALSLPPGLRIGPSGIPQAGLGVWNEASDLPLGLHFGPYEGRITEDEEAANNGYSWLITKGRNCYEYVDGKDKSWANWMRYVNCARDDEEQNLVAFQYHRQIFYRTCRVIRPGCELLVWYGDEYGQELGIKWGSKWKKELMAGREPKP
Test: PRDM9 biochemical assay (radiometric, 3[H] methyl transfer from SAM to biotinylated histone H3 peptide)
Conditions: 1 nM hPRDM9, 1 μM biotinylated H3(1-25)K4 peptide, 5 μM 3[H]-SAM, 55 μM un-labeled SAM, 25° C., 30 minutes
Method: The PRDM9 biochemical assay was carried out using a radiometric format involving the transfer of ^3[H] methyl group from S-adenosyl methionine (SAM) to a biotinylated histone H3 peptide (H3(1-25)K4). 10 mM compounds in DMSO were diluted 20 fold in assay buffer (10 mM Tris-HCl, pH 8.5, 10 mM DTT, and 0.01% Triton X-100) before adding […] to a well in a 384 well polypropylene microplate plate and adding 8 μl of reaction mix (1.25 nM hPRDM9 (amino acids 195-385), 1.25 μM biotinylated H3 peptide in assay buffer). The ^3[H]-SAM and cold SAM stock solutions were diluted to 50 μM and 550 μM respectively in assay buffer before aliquoting 1 μl of 50 μM ^3[H]-SAM, 550 μM SAM into each well to initiate the reaction. The assay was performed at 25° C. at the final concentrations of 1 nM hPRDM9, 1 μM peptide, 5 μM ^3[H]-SAM, and 55 μM un-labeled SAM in assay buffer. The reaction was quenched after 30 minutes by adding 25 μl 7.5 M Guanidine-HCl. Quenched reactions were transferred to streptavidin coated Flashplates, diluted two fold in assay buffer, incubated for 1 hour, and read on a Perkin Elmer Topcount instrument. Compound activity was expressed relative to activity of 0.5% (v/v) DMSO treated samples and fit to a four parameter logistic equation to determine IC50 values.

Row | SMILES | IC50
1 | COc1cc(OC)cc(-c2noc(N3CCN(C)C4(CCN(c5ccnc6ccccc56)CC4)C3)n2)c1 [Compound 102] | 4.4 µM
2 | Cc1cc(N2CCC(N(c3nc(-c4cc(Cl)cc(Cl)c4)no3)C3CC3)CC2)ccn1 [Compound 51] | 7.29 µM
3 | O=c1cc(N2CC3(CCCN(c4nc(-c5cc(Cl)cc(Cl)c5)no4)C3)C2)cc[nH]1 [Compound 208] | 5 µM
4 | Cc1cc(NC2CC23CCN(c2nc(-c4cc(Cl)cc(Cl)c4)no2)C3)ccn1 (stereo not shown) [Compound 157] | 31 µM
5 | Cc1cc(N2CCC(CNc3nc(-c4cc(Cl)cc(Cl)c4)no3)CC2)ccn1 [Compound 233] | 2.75 µM
6 | Cc1cc(N2CCCC3CN(c4nc(-c5cc(Cl)cc(Cl)c5)no4)CC32)ccn1 (stereo not shown) [Compound 210] | 35 µM
7 | Cc1cc(N2CC3(CCCN(c4nc(-c5cc(Cl)cc(Cl)c5)no4)C3)C2)cc(C)n1 [Compound 205] | 0.16 µM
8 | Cc1cc(N2CC3(CCCN(c4nc(C5CC5)no4)C3)C2)ccn1 [Compound 146] | ≥ 50 µM
9 | Cc1cc(NC2CCC3CN(c4nc(-c5cc(Cl)cc(Cl)c5)no4)CC32)ccn1 (stereo not shown) [Compound 177] | 8.64 µM
10 | N#Cc1ccnc(N2CC3(CCCN(c4nc(-c5cc(Cl)cc(Cl)c5)no4)C3)C2)c1 [Compound 197] | 2 µM
11 | Cc1cc(N2CC3(CCCN(c4cc(-c5cccc(F)c5F)n[nH]4)C3)C2)ccn1 [Compound 128, 6-(3-(2,3-difluorophenyl)-1H-pyrazol-5-yl)-2-(2-methylpyridin-4-yl)-2,6-diazaspiro[3.5]nonane] | 23.7 µM
12 | COc1ccc(-c2c(-c3cc(Cl)cc(Cl)c3)noc2N2CCCC3(CN(c4ccnc(C)c4)C3)C2)c(OC)c1 [Compound 125] | 25.1 µM
13 | COc1cccc(-c2noc(N3CCCC4(CN(c5ccnc(C)c5)C4)C3)n2)c1 [Compound 142] | 0.203 µM
14 | Cc1cc(N2C[C@H]3CCN(c4nc(-c5cc(Cl)cc(Cl)c5)no4)C[C@H]3C2)ccn1 (racemic) [Compound 36] | 27.8 µM
15 | Cc1cc(N2CCN(c3nc(-c4cc(Cl)cc(Cl)c4)no3)CC2)ccn1 [Compound 79] | 19.1 µM
16 | Cc1cc(N2CCC(Nc3nc(-c4cc(Cl)cc(Cl)c4)no3)CC2)ccn1 [Compound 225] | ≥ 50 µM
17 | Cc1cc(N2CCC3(CCCC3Nc3nc(-c4cc(Cl)cc(Cl)c4)no3)CC2)ccn1 (stereo not shown) [Compound 33] | 1.52 µM
18 | Clc1cc(Cl)cc(-c2noc(N3CCCC4(CN(c5ccncc5)C4)C3)n2)c1 [Compound 203] | 1 µM
19 | Cc1cc(NC2CCC(O)(CNc3nc(-c4cc(Cl)cc(Cl)c4)no3)CC2)ccn1 (stereo not shown) [Compound 69] | 7.04 µM
20 | Cc1cc(N2CC3CC(Nc4nc(-c5cc(Cl)cc(Cl)c5)no4)CC3C2)ccn1 (stereo not shown) [Compound 24] | 5.34 µM
21 | Cc1cc(NCC2CN(c3nc(-c4cc(Cl)cc(Cl)c4)no3)CCC2C)ccn1 (stereo not shown) [Compound 176] | 13.6 µM
22 | Cc1cc(NCC2(C)CCN(c3nc(-c4cc(Cl)cc(Cl)c4)no3)CC2)ccn1 [Compound 64] | 3.58 µM
23 | Cc1cc(N(C)CCCCNc2nc(-c3cc(Cl)cc(Cl)c3)no2)ccn1 [Compound 58] | 24 µM

Row | SMILES | IC50
24 | Cc1cc(NC(C)C2CCN(c3nc(-c4cc(Cl)cc(Cl)c4)no3)C2)ccn1 (stereo not shown) [Compound 227] | 35.5 µM
25 | Cc1cc(N2CC3CCCN(c4nc(-c5cc(Cl)cc(Cl)c5)no4)C3C2)ccn1 (stereo not shown) [Compound 68] | 2.8 µM
26 | COc1cccc(-c2nc(N3CCCC4(CCN(c5ccnc(C)c5)CC4)C3)no2)c1 [Compound 87] | 0.47 µM
27 | CNCc1cc(OC)cc(-c2noc(N3CCN(C)C4(CCN(c5ccnc(C)c5)CC4)C3)n2)c1 [Compound 245, 1-(3-methoxy-5-(5-(1-methyl-9-(2-methylpyridin-4-yl)-1,4,9-triazaspiro[5.5]undecan-4-yl)-1,2,4-oxadiazol-3-yl)phenyl)-N-methylmethanamine, HCl] | 0.083 µM
28 | COc1cccc(-c2noc(N3CC4(CCC3=O)CCN(c3ccnc(C)c3)CC4)n2)c1 [Compound 153, 2-(3-(3-methoxyphenyl)-1,2,4-oxadiazol-5-yl)-9-(2-methylpyridin-4-yl)-2,9-diazaspiro[5.5]undecan-3-one] | 44.8 µM
29 | Cc1cc(NCCC2CN(c3nc(-c4cc(Cl)cc(Cl)c4)no3)c3ccccc32)ccn1 (stereo not shown) [Compound 175] | 3.81 µM
30 | Cc1cc(N2CC3(CCCN(c4onc(-c5cc(Cl)cc(Cl)c5)c4-c4ccoc4)C3)C2)ccn1 [Compound 122, 3-(3,5-dichlorophenyl)-4-(furan-3-yl)-5-(2-(2-methylpyridin-4-yl)-2,6-diazaspiro[3.5]nonan-6-yl)isoxazole] | 30.6 µM
31 | COc1cc(OC)cc(-c2noc(N3CCC4(CC5CCC(C4)N5c4ccnc(C)c4)C3)n2)c1 (stereo not shown) [Compound 158] | 3.81 µM
32 | Cc1cc(NCC2(O)CCN(c3nc(-c4cc(Cl)cc(Cl)c4)no3)C2)ccn1 (stereo not shown) [Compound 37] | 15.5 µM
33 | Cc1cc(N2CC3(CCCN(c4onc(-c5cc(Cl)cc(Cl)c5)c4Br)C3)C2)ccn1 [Compound 121, 4-bromo-3-(3,5-dichlorophenyl)-5-(2-(2-methylpyridin-4-yl)-2,6-diazaspiro[3.5]nonan-6-yl)isoxazole] | 13.7 µM
34 | Cc1cc(N2CCC3(CC2)CC3Nc2nc(-c3cc(Cl)cc(Cl)c3)no2)ccn1 (stereo not shown) [Compound 34] | 2.2 µM
35 | COc1cc(OC(F)(F)F)cc(-c2nc(N3CCCC4(CCN(c5ccnc(C)c5)CC4)C3)no2)c1 [Compound 91, 5-(3-methoxy-5-(trifluoromethoxy)phenyl)-3-(9-(2-methylpyridin-4-yl)-2,9-diazaspiro[5.5]undecan-2-yl)-1,2,4-oxadiazole] | 0.15 µM
36 | COc1cc(OC)cc(-c2noc(NCC3(O)CN(c4ccnc(C)c4)C3)n2)c1 [Compound 247, 3-(((3-(3,5-dimethoxyphenyl)-1,2,4-oxadiazol-5-yl)amino)methyl)-1-(2-methylpyridin-4-yl)azetidin-3-ol] | 0.65 µM
37 | Cc1cc(N2CC3CCC(Nc4nc(-c5cc(Cl)cc(Cl)c5)no4)CC3C2)ccn1 (stereo not shown) [Compound 70] | 6.9 µM
38 | Cc1cc(N2CCC(CNc3nc(-c4cc(Cl)cc(Cl)c4)no3)C2)ccn1 (stereo not shown) [Compound 215] | 11 µM
39 | Cc1cc(NC2CCC(Nc3nc(-c4cc(Cl)cc(Cl)c4)no3)CC2)ccn1 (stereo not shown) [Compound 54] | 26.1 µM
40 | Cc1cc(NCCCN(C)c2nc(-c3cc(Cl)cc(Cl)c3)no2)ccn1 [Compound 16] | 11.5 µM
41 | Cc1cc(N2CCC3(CCCN(c4nc(-c5cc(Cl)cc(Cl)c5)no4)C3)CC2)ccn1 [Compound 216] | 0.246 µM
42 | Cc1cc(N2CCC3CN(c4nc(-c5cc(Cl)cc(Cl)c5)no4)CC32)ccn1 (stereo not shown) [Compound 39] | 12.3 µM
43 | COc1cc(OC)cc(-c2noc(N3CC(c4ccccc4)OC4(CCN(c5ccnc(C)c5)CC4)C3)n2)c1 (stereo not shown) [Compound 181] | 2.14 µM
44 | Cc1cc(N2CC[C@@H]3CN(c4nc(-c5cc(Cl)cc(Cl)c5)no4)C[C@@H]3C2)ccn1 [Compound 1, 3-(3,5-dichlorophenyl)-5-((3aS,7aS)-5-(2-methylpyridin-4-yl)hexahydro-1H-pyrrolo[3,4-c]pyridin-2(3H)-yl)-1,2,4-oxadiazole] | 5.16 µM
45 | Cc1cc(N2CC3(CCCN(c4onc(-c5cc(Cl)cc(Cl)c5)c4-c4ccc(N)cc4)C3)C2)ccn1 [Compound 123] | 6.67 µM
46 | Cc1cc(N2CCC(CNc3nc(-c4cc(Cl)cc(Cl)c4)no3)(c3ccccc3)CC2)ccn1 [Compound 67] | 4.44 µM
